These results are taken from ChEMBL document CHEMBL1201862, “PubChem BioAssay data set” (2004).

Test systems include HCT-15; NCI-H460; NCI-H23; HCC 2998; SK-MEL-5; A498; NCI-H226; UACC-257; A549; Hs-578T; SR; COLO 205; HCT-116; NCI/ADR-RES; SW-620; CCRF-CEM; SNB-75; PC-3; DU-145; OVCAR-3.
Holding throughout (assay): DTP human tumour cell line panel, 48 h

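Briefly, cells in 96-well plates were exposed to five compound concentrations for 48 h, and endpoints were estimated by linear interpolation. Here, GI50 denotes the concentration required for 50% inhibition of growth.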 The source made the active and inactive calls. Cut-off read from the data, not from the text of the source: active = GI50 up to about 1.1 µM and inactive = higher. Some results are limits rather than exact numbers.

Consider `CC1OC(OC2C(O[C@H]3CC[C@@]4(C)C(=CC[C@H]5[C@@H]6C[C@@H]7O[C@]8(CC[C@H](C)CN8)[C@@H](C)[C@@H]7[C@@]6(C)CC[C@@H]54)C3)OC(CO)C(O)C2OC2OC(CO)C(O)C(O)C2O)C(O)C(O)C1O` (some centres undefined), for which the GI50 in the assay with HCT-15 was 16.7 µM; with NCI-H460, 17.8 µM (inactive); with NCI-H23 it was 18.5 µM (inactive); in the assay on HCC 2998, 18.3 µM (inactive); with SK-MEL-5, 19.2 µM (inactive); with A498 it was 26.9 µM (inactive). In addition, the GI50 in the assay on NCI-H226 was 17.4 µM (inactive); with UACC-257, 18.2 µM (inactive); in the assay with A549, 18.1 µM (inactive); in the assay with Hs-578T it was 14.7 µM (inactive); with SR, 29 µM (inactive); in the assay on COLO 205, 17.9 µM (inactive). Also, the GI50 was 20.1 µM (inactive) with HCT-116; 16.4 µM (inactive) in the assay with NCI/ADR-RES; 19.2 µM (inactive) with SW-620; 21.6 µM (inactive) in the assay with CCRF-CEM; 14.5 µM (inactive) with SNB-75; 18.1 µM (inactive) with PC-3. The GI50 in the assay on DU-145 was 19.4 µM (inactive).

On to `Clc1ccc2oc(CCc3ccccc3)nc2c1`, for which the concentration for 50% growth inhibition (GI50) in the assay with HCT-15 was 38.5 µM; in the assay on NCI-H460 it was 59.2 µM (inactive); in the assay with NCI-H23, 45.8 µM (inactive); in the assay with HCC 2998, 27.4 µM (inactive); in the assay with SK-MEL-5 it was 20.3 µM (inactive); in the assay with A498 it was 26.3 µM (inactive). In addition, the GI50 in the assay with NCI-H226 was 32.6 µM (inactive); in the assay on UACC-257, 42.4 µM (inactive); in the assay with A549 it was 36.6 µM (inactive); with OVCAR-3, 21.3 µM (inactive); in the assay with Hs-578T it was > 100 µM (inactive); with SR it was 57.3 µM (inactive). Besides, the GI50 was 41.7 µM (inactive) with COLO 205; 36.2 µM (inactive) in the assay on HCT-116; 40.8 µM (inactive) in the assay on NCI/ADR-RES; 49.4 µM (inactive) in the assay on SW-620; 29.8 µM (inactive) in the assay with CCRF-CEM; 17.8 µM (inactive) in the assay on SNB-75. Further, the GI50 with PC-3 was 48.6 µM (inactive); in the assay with DU-145, 48.1 µM (inactive).

As to `CCN(CC)C(=S)SC1C(=O)NC(=O)NC1=O`, the 50% growth inhibitory concentration (GI50) is greater than 100 µM in the assay on HCT-15; 0.017 µM (active) with NCI-H460; > 100 µM (inactive) in the assay with NCI-H23; > 100 µM (inactive) with HCC 2998; > 100 µM (inactive) with SK-MEL-5; 0.0106 µM (active) in the assay with A498. Moreover, the GI50 in the assay on NCI-H226, in the assay with UACC-257, in the assay with A549, with OVCAR-3, with Hs-578T and in the assay on SR was > 100 µM (inactive) each time. Besides, the GI50 in the assay on COLO 205 was > 100 µM (inactive); in the assay with HCT-116 it was > 100 µM (inactive); in the assay on NCI/ADR-RES, 0.6 µM (active); in the assay on SW-620, > 100 µM (inactive); in the assay with CCRF-CEM, > 100 µM (inactive); with SNB-75, > 100 µM (inactive). Moreover, the GI50 in the assay with PC-3 and with DU-145 was > 100 µM (inactive) each time.

For the compound `Cc1ccc(S(=O)(=O)N2CCN(CCN(C)CCN3CCN(S(=O)(=O)c4ccc(C)cc4)CC3)CC2)cc1`, the concentration for 50% growth inhibition (GI50) with HCT-15 is 17.6 µM; in the assay on NCI-H460 it was 17.5 µM (inactive); in the assay with NCI-H23, 22.6 µM (inactive); in the assay on HCC 2998, 15.9 µM (inactive); in the assay with SK-MEL-5 it was 16.3 µM (inactive); in the assay with A498, 16.4 µM (inactive). In addition, the GI50 was 25.7 µM (inactive) with NCI-H226; 16.4 µM (inactive) in the assay with UACC-257; 23.3 µM (inactive) in the assay with A549; 16.7 µM (inactive) with OVCAR-3; 22.3 µM (inactive) with Hs-578T; 18.5 µM (inactive) in the assay with SR. For the same compound, the GI50 with COLO 205 was 18.2 µM (inactive); with HCT-116 it was 17 µM (inactive); with NCI/ADR-RES it was 20 µM (inactive); in the assay on SW-620 it was 16.9 µM (inactive); in the assay on CCRF-CEM, 18.7 µM (inactive); in the assay on PC-3, 20.7 µM (inactive). For the same compound, the GI50 in the assay with DU-145 is 16 µM (inactive).

Consider `CC(=O)OC(Cc1ccc2ccccc2n1)(C(F)(F)F)C(F)(F)F`, for which the GI50 in the assay with HCT-15 is 1.97 µM; in the assay with NCI-H460, 6 µM (inactive); in the assay on NCI-H23, 1.58 µM (inactive); in the assay with HCC 2998, 0.851 µM (active); in the assay on SK-MEL-5, 0.253 µM (active); with A498 it was 1.95 µM (inactive). The GI50 in the assay with NCI-H226 is 1.76 µM (inactive); in the assay on A549 it was 9.53 µM (inactive); in the assay with OVCAR-3, 0.676 µM (active); with Hs-578T, 1.35 µM (inactive); in the assay on SR, 0.11 µM (active); in the assay on COLO 205, 0.217 µM (active). In addition, the GI50 in the assay with HCT-116 was 1.31 µM (inactive); in the assay on NCI/ADR-RES, 1.72 µM (inactive); in the assay with SW-620, 0.426 µM (active); in the assay with CCRF-CEM, 0.0728 µM (active); in the assay on SNB-75, 4.36 µM (inactive); in the assay with PC-3 it was 2.09 µM (inactive). For the same compound, the GI50 in the assay on DU-145 was 3.31 µM (inactive).

For the compound `CC(C)(C)c1cc2c(O)c(c1)Cc1cc(C(C)(C)C)cc(c1O)Cc1cc(C(C)(C)C)cc(c1O)Cc1cc(C(C)(C)C)cc(c1O)Cc1cc(C(C)(C)C)cc(c1O)Cc1cc(C(C)(C)C)cc(c1O)Cc1cc(C(C)(C)C)cc(c1O)Cc1cc(C(C)(C)C)cc(c1O)C2`, the GI50 in the assay with HCT-15 was greater than 50 µM; in the assay with NCI-H460, > 50 µM (inactive); in the assay on NCI-H23, > 50 µM (inactive); with HCC 2998, > 50 µM (inactive); with SK-MEL-5 it was > 50 µM (inactive); in the assay on A498, > 50 µM (inactive). The GI50 in the assay on NCI-H226, with UACC-257, with A549, in the assay on OVCAR-3, in the assay with Hs-578T and in the assay on SR was > 50 µM (inactive) in each case. For the same compound, the GI50 in the assay with COLO 205, in the assay on HCT-116, with NCI/ADR-RES, with SW-620, in the assay with CCRF-CEM and in the assay on SNB-75 was > 50 µM (inactive) each time. The GI50 in the assay with PC-3 and with DU-145 was > 50 µM (inactive) each time.

With `COC(=O)CCC1(C)C2CCC1/C(=N/O)C2` (centres undefined), the GI50 with HCT-15 was greater than 100 µM; in the assay with NCI-H23, > 100 µM (inactive); in the assay on HCC 2998 it was > 100 µM (inactive); with SK-MEL-5 it was > 100 µM (inactive); in the assay on A498, > 100 µM (inactive); with NCI-H226 it was > 100 µM (inactive). Besides, the GI50 with UACC-257, in the assay on A549, in the assay on OVCAR-3, in the assay with Hs-578T, with SR and in the assay on COLO 205 was > 100 µM (inactive) throughout. The GI50 in the assay on HCT-116, in the assay with NCI/ADR-RES, with SW-620, in the assay on CCRF-CEM, in the assay on SNB-75 and in the assay on PC-3 was > 100 µM (inactive) throughout. In addition, in the assay with DU-145, the GI50 is > 100 µM (inactive).

Consider `O=C(Nc1sccc1S(=O)(=O)c1ccc(Cl)cc1)C(F)(F)F`, for which the 50% growth inhibitory concentration (GI50) in the assay on HCT-15 was 29.5 µM; with NCI-H460 it was 27.4 µM (inactive); in the assay with NCI-H23, 24.1 µM (inactive); in the assay with HCC 2998, 22.9 µM (inactive); with SK-MEL-5, 16 µM (inactive); with A498, 33.9 µM (inactive). Besides, the GI50 was 29.6 µM (inactive) in the assay on NCI-H226; 32.7 µM (inactive) in the assay on UACC-257; 29.2 µM (inactive) in the assay with A549; 31 µM (inactive) in the assay with OVCAR-3; 18.7 µM (inactive) in the assay with Hs-578T; 22.8 µM (inactive) with SR. Further, the GI50 in the assay with COLO 205 was 17.1 µM (inactive); in the assay on HCT-116, 14.1 µM (inactive); in the assay on NCI/ADR-RES, 18.4 µM (inactive); in the assay on SW-620 it was 53.2 µM (inactive); in the assay on SNB-75 it was 20.9 µM (inactive); in the assay with PC-3, 21.5 µM (inactive). The GI50 in the assay on DU-145 is 31.6 µM (inactive).

As to `COc1ccc(NC(=O)CC(=O)n2nc(C)c(/N=N/c3ccc(C)c(C)c3)c2C)cc1`, the GI50 with NCI-H460 is > 100 µM (inactive); in the assay on NCI-H23 it was 71.4 µM (inactive); in the assay on HCC 2998, > 100 µM (inactive); with SK-MEL-5 it was > 100 µM (inactive); with A498 it was 63.8 µM (inactive); with NCI-H226, 51.3 µM (inactive). Besides, the GI50 with UACC-257 was > 10 µM (inactive); in the assay on A549, > 100 µM (inactive); in the assay with OVCAR-3, > 100 µM (inactive); in the assay with Hs-578T, 25.2 µM (inactive); with SR, 43.3 µM (inactive); with COLO 205, > 100 µM (inactive). Besides, the GI50 in the assay on HCT-116 was > 100 µM (inactive); with NCI/ADR-RES, > 100 µM (inactive); with SW-620 it was > 100 µM (inactive); in the assay with CCRF-CEM, > 100 µM (inactive); in the assay on SNB-75 it was 39.2 µM (inactive); in the assay with PC-3, > 100 µM (inactive). In the assay on DU-145, the GI50 is > 100 µM (inactive).

Regarding `O=C(O)CCNc1[nH]cnc2ncnc1-2`, the 50% growth inhibitory concentration (GI50) in the assay with HCT-15 was greater than 100 µM; in the assay with NCI-H460, > 100 µM (inactive); in the assay on NCI-H23, > 100 µM (inactive); with HCC 2998 it was > 100 µM (inactive); with SK-MEL-5, > 100 µM (inactive); in the assay with A498 it was > 100 µM (inactive). For the same compound, the GI50 in the assay with NCI-H226 was > 100 µM (inactive); in the assay with UACC-257, > 100 µM (inactive); in the assay on A549, > 100 µM (inactive); in the assay on OVCAR-3, 0.621 µM (active); in the assay with Hs-578T it was > 100 µM (inactive); in the assay with SR, > 100 µM (inactive). Besides, the GI50 in the assay with COLO 205, with HCT-116, in the assay on NCI/ADR-RES, in the assay on SW-620, with CCRF-CEM and in the assay with SNB-75 was > 100 µM (inactive) each time. Further, the GI50 in the assay with PC-3 and in the assay on DU-145 was > 100 µM (inactive) in each case.

Usually GI50 stands for the concentration giving 50% growth inhibition.
